Biological target: T1, Alpha-(1,6)-fucosyltransferase (Homo sapiens) (UniProt Q9BYC5)
T1 sequence (whole entry): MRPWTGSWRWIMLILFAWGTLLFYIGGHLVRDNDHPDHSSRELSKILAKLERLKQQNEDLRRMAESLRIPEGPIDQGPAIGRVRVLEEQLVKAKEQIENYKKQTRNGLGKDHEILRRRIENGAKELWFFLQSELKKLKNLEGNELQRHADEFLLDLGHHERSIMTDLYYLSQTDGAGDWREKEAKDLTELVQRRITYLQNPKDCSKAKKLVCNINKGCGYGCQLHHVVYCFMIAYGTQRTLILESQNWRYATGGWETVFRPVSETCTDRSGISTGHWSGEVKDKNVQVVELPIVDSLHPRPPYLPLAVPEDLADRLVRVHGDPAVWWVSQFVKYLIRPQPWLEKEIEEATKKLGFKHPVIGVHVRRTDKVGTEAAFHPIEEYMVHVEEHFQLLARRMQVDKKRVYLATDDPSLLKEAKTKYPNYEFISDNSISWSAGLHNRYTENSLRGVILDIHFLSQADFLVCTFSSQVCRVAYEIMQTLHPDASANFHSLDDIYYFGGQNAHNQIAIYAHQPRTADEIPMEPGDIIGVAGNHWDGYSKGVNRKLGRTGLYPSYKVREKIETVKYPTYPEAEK
Test: Inhibition of FUT8 in human […] cells at 100 uM using (S)-2-(((9H-fluoren-9-yl)methoxy)carbonylamino)-4-((2R,3R,4R,5S,6R)-3-acetamido-5-((2S,3R,4R,5S,6R)-3-acetamido-5-((2S,3S,4S,5R,6R)-4-((2R,3S,4S,5S,6R)-3-((2S,3R,4R,5S,6R)-3-acetamido-4,5-dihydroxy-6-(hydroxymethyl)tetrahydro-2H-pyran-2-yloxy)-4,5-dihydroxy-6-(hydroxymethyl)tetrahydro-2H-pyran-2-yloxy)-6-(((2S,3S,4S,5S,6R)-3-((2S,3R,4R,5S,6R)-3-acetamido-4,5-dihydroxy-6-(hydroxymethyl)tetrahydro-2H-pyran-2-yloxy)-4,5-dihydroxy-6-(hydroxymethyl)tetrahydro-2H-pyran-2-yloxy)methyl)-3,5-dihydroxytetrahydro-2H-pyran-2-yloxy)-4-hydroxy-6-(hydroxymethyl)tetrahydro-2H-pyran-2-yloxy)-4-hydroxy-6-(hydroxymethyl)tetrahydro-2H-pyran-2-ylamino)-4-oxobutanoic acid as substrate after 24 hrs in presence of GDP-fucose by HPLC method relative to control
Format: cell-based

inhibition	Compound
14%	CCCS/C(CCO[C@H]1O[C@@H](C)[C@@H](O)[C@@H](O)[C@@H]1O)=N\S(=O)(=O)CCCCCn1cnc2c(=O)[nH]c(N)nc21
39%	CCN(CC)/C(CCO[C@H]1O[C@@H](C)[C@@H](O)[C@@H](O)[C@@H]1O)=N\S(=O)(=O)CCCCCn1cnc2c(=O)[nH]c(N)nc21
41%	CCCN/C(CCO[C@H]1O[C@@H](C)[C@@H](O)[C@@H](O)[C@@H]1O)=N\S(=O)(=O)CCCCCn1cnc2c(=O)[nH]c(N)nc21
57%	CO/C(CCO[C@H]1O[C@@H](C)[C@@H](O)[C@@H](O)[C@@H]1O)=N\S(=O)(=O)CCCCCn1cnc2c(=O)[nH]c(N)nc21
45%	C[C@@H]1O[C@H](OCc2cn(S(=O)(=O)CCCCCn3cnc4c(=O)[nH]c(N)nc43)nn2)[C@@H](O)[C@H](O)[C@@H]1O
31%	C[C@@H]1O[C@H](OCCC(=O)NS(=O)(=O)CCCCCn2cnc3c(=O)[nH]c(N)nc32)[C@@H](O)[C@H](O)[C@@H]1O

From ChEMBL document CHEMBL4020702, “Development of α1,6-fucosyltransferase inhibitors through the diversity-oriented syntheses of GDP-fucose mimics using the coupling between alkyne and sulfonyl azide” (Bioorg Med Chem, 2017)
